Where “and” joins values, the source holds several entries; their conditions need not be identical. Equal values may be shown once. Entries after “also recorded” stand apart in the source; their conditions may differ.
Tests used:
IFNγ [1] = experiment: IFNγ ELISA on PLP139-151-stimulated cells from lipid-treated EAE mice; assay type: in vivo; conditions: vs controls; for IFNγ secretion by lymph node cells: LN cells from treated EAE mice stimulated with PLP139-151
Description: (§1) FIG. 5a-5b. PGPC treatment lowers IFNgamma secretion and early activation marker expression in response to the encephalitogenic antigen. (a) CD69 expression on CD4^+ and CD8^+PI^− lymphocytes (live cells) after 4 days in culture with 10 μg/ml PLP139-151. The ratio of CD69^+CD4^+:CD69^−CD4^+ is 14.2%:39.6% for lymph node cells from vehicle-treated mice, 9.6%:43.8% for cells from sphingomyelin-treated mice, and 7.96%:55.2% for cells from PGPC-treated mice. […] (b) Proliferation and cytokine assays of lymph node cells and splenocytes isolated from vehicle, PGPC, and sphingomyelin-treated mice in FIG. 4c.
(§2) Mice were sacrificed 48 days after disease induction and their spleens and lymph nodes (LN) harvested for analyses of expression of activation markers on subsets of T cells, measurements of secreted cytokines, and levels of T cell proliferation. Isolated cells were restimulated with the encephalitogenic antigen PLP139-151 and analyzed by flow cytometry. Dead cells (identified based on staining with propidium iodide) were eliminated from the analyses, and cells double stained with CD4-FITC or CD8-FITC and CD69-PE are presented (FIG. 5a). […] Specifically, the cells isolated from vehicle treated mice were 39.6% CD4^+CD69^− and 14.2% CD4^+CD69^+, whereas cells from PGPC treated mice were 55.2% CD4^+CD69^− and 7.96% CD4^+CD69^+.
(§3) Proliferation and cytokine assays. We sacrificed mice and harvested their lymph node cells and splenocytes. 2.5×10^6 cells/ml were stimulated in vitro with 10 μg/ml PLP139-151, 1 μg/ml ConA, or media alone. Cells were cultured in RPMI 1640 with 10% fetal bovine serum, supplemented with L-glutamine (2 mM), sodium pyruvate (1 mM), non-essential amino acids (0.1 mM), penicillin (100 U/ml), streptomycin (0.1 mg/ml), and 2-mercaptoethanol (50 μM). To assess proliferation, 1 μCi of ^3H-thymidine was added to each well at 48 hours for the final 18 hours of culture, and radioactivity incorporation quantified using a Betaplate scintillation counter. Cytokine assays were performed on culture supernatants after 66 hours of culture using the BD OptEIA™ Mouse IFNγ ELISA kit (BD Biosciences). Results are shown as mean of triplicates+s.e.m.

splenocytes = experiment: 3H-thymidine proliferation of PLP139-151-stimulated splenocytes from lipid-treated EAE mice; assay type: in vivo; conditions: PLP139-151-stimulated splenocytes from treated EAE mice
Description: as §1
Mice were sacrificed 48 days after disease induction and their spleens and lymph nodes (LN) harvested for analyses of expression of activation markers on subsets of T cells, measurements of secreted cytokines, and levels of T cell proliferation. Isolated cells were restimulated with the encephalitogenic antigen PLP139-151 and analyzed by flow cytometry. Dead cells (identified based on staining with propidium iodide) were eliminated from the analyses, and cells double stained with CD4-FITC or CD8-FITC and CD69-PE are presented (FIG. 5a). […]
(§4) Proliferation and cytokine assays. […] To assess proliferation, 1 μCi of ^3H-thymidine was added to each well at 48 hours for the final 18 hours of culture, and radioactivity incorporation quantified using a Betaplate scintillation counter. […]

TCR Tg LN cells [2] = experiment: CFSE T cell proliferation assay, MBPAc1-11-stimulated TCR Tg LN cells; assay type: cell-based, mice; conditions: 75 μM lipid, 5 μg/ml MBPAc1-11, 48 hours, CD3+ and CD4+ cells; vs media alone
[3] = test system: MBPAc1-11-specific T cells; experiment: 3H-thymidine proliferation of MBPAc1-11-stimulated LN cells with lipid in vitro; assay type: cell-based, mice
Description: (§5) FIG. 6a-6d. PGPC slows the rate of T cell proliferation. […] The 0 hour time point is shown as the high peak with the black dashed line. (c) 7AAD stained cells from TCR Tg mice^33, 48 hours after incubation with 5 μg/ml MBPAc1-11 with or without lipid. […] (d) LN cells stimulated with 1 μg/ml MBPAC1-11, 30 μg/ml PGPC, with or without 50 U/ml IL-2 are depicted.
(§6) To determine if the PGPC-mediated reduction in the proliferation rate of MBPAC1-11 stimulated T cells was due to cell death, we examined 7AAD uptake to identify dead cells at the 48 hour time point (FIG. 6c). […] This effect could be reversed by the addition of 50 U/ml IL-2 (p=0.024, Student's t test) (FIG. 6d), consistent with IL-2 mediated rescue of the T cells from an anergic state.
as §3, with “Cytokine assays were performed on culture supernatants after 66 hours of culture using the BD OptEIA™ Mouse IFNγ ELISA kit (BD Biosciences). Results are shown as mean of triplicates+s.e.m.” left out

[4] = test system: CD69 expression on CD4+ T cells; experiment: Flow cytometry of CD69 on restimulated lymph node cells from lipid-treated EAE mice; assay type: in vivo; conditions: for expression of early activation marker CD69 on CD4+ T cells: cells from treated EAE mice restimulated with PLP139-151, vs vehicle; for CD4+CD69+ cells / CD4+CD69− cells: lymph node cells of treated EAE mice, 4 days culture with 10 μg/ml PLP139-151; for CD4+CD69+ cells: vehicle 14.2%; for CD4+CD69− cells: vehicle 39.6%
Description: as §1, §2
Flow cytometric analysis. Cells were stained and run on a FACScan flow cytometer (BD Biosciences) using CellQuest software (BD Immunocytometry Systems). Results were analyzed using FlowJo software version 6.3.2 (Tree Star, Inc.). The following antibody conjugates were used: PE anti-mouse CD3, clone 145-2C11; FITC anti-mouse CD4, clone GK1.5; PE anti-mouse CD4, clone GK1.5; FITC anti-mouse CD8, clone 53-6.7; PE-anti-mouse CD69, clone H1.2F3. All anti-CD3, CD4, and CD8 antibodies were purchased from BD Pharmingen. Anti-mouse CD69 was purchased from eBioscience. 7AAD staining was performed using the reagents from the Annexin V-PE Apoptosis Detection Kit I (BD Pharmingen) using the manufacturer's recommended staining protocol. CFSE staining was performed on freshly isolated lymph node cells by mixing equal volumes of 37° C. pre-warmed cells in PBS containing 5% FBS with 10 μM solution of pre-warmed CFSE probe (CellTrace™ CFSE Cell Proliferation Kit) as described in the manufacturer's alternate method for labelling cells in solution (Molecular Probes).

EAE [5] = experiment: Treatment of established EAE with intravenous lipid; assay type: in vivo, mice; conditions: 100 μg lipid i.v. at onset of paralysis and days 3, 6, 12, 18; five injections; vs vehicle
TCR Tg LN cells [6] = experiment: 7AAD uptake (cell death) in MBPAc1-11-stimulated TCR Tg cells; assay type: cell-based; conditions: 75 μM lipid, 5 μg/ml MBPAc1-11, 48 hours
Description: as §5, §6
Flow cytometric analysis. Cells were stained and run on a FACScan flow cytometer (BD Biosciences) using CellQuest software (BD Immunocytometry Systems). Results were analyzed using FlowJo software version 6.3.2 (Tree Star, Inc.). The following antibody conjugates were used: PE anti-mouse CD3, clone 145-2C11; FITC anti-mouse CD4, clone GK1.5; PE anti-mouse CD4, clone GK1.5; FITC anti-mouse CD8, clone 53-6.7; PE-anti-mouse CD69, clone H1.2F3. All anti-CD3, CD4, and CD8 antibodies were purchased from BD Pharmingen. Anti-mouse CD69 was purchased from eBioscience. […]

EAE [7] = experiment: Prevention of EAE by co-delivery of lipid with PLP139-151/CFA; assay type: in vivo; conditions: SJL/J mice; 6 μg lipid with 100 μg PLP139-151 in CFA s.c. day 0, 6 μg i.p. days 4 and 7; vs vehicle
EAE [8] = experiment: Co-immunization with sulfatide plus PLP139-151, EAE disease course; assay type: in vivo; conditions: SJL mice; sulfatide 6 μg/mouse with PLP139-151 in CFA day 0, i.p. d4 and d7; vs vehicle
Description: (§7) FIG. 9. […] (a) Co-immunization of SJL mice with sulfatide (6 μg/mouse) and PLP139-151 (100 μg/mouse) emulsified in CFA (▪ sulfatide n=10, ▪ vehicle control n=10). An additional immunization of sulfatide (6 μg/mouse) or vehicle was given i.p. on d4 and d7 post-immunization. Each point represents the mean+s.e.m. (*p<0.05; Student's t test). […] The heatmap and dendrograms represent the SAM and hierarchical cluster analysis of lipid array results. (c) Modulation of EAE disease course after i.v. injection of O4 anti-sulfatide antibody versus IgM isotype control (▪ O4 n=5, ▪ IgM control n=5). Antibody was given on days 14, 17, and 19 post-immunization.
(§8) Further, the exacerbation of mouse EAE was associated with increased lymphocyte production of pro-inflammatory cytokines. Thus, characterization of the effects of candidate lipids in the mouse EAE model for MS (EAE), both with regard to their effects on disease severity as well as the production of pro-inflammatory cytokines by autoreactive lymphocytes can be used to identify lipids likely to exacerbated MS.
EAE induction and lipid co-immunization. […] Clinical disease was monitored daily using the following scoring system: 0, no disease; 1, limp tail; 2, hindlimb weakness; 3, hindlimb paralysis; 4, hindlimb and forelimb paralysis; 5, death. […]

IL-12 = IL-12 production by lymphocytes from sulfatide-treated mice; assay type: in vivo; conditions: lymphocytes from sulfatide-treated mice (sulfatide+PLP139-151)
Description: as §7

anti-lipid antibodies = experiment: Lipid array analysis of serum from mice co-immunized with PLP139-151 plus sulfatide; assay type: in vivo; conditions: SJL mice co-immunized with PLP139-151 plus sulfatide
Description: as §7
Probing lipid arrays. Arrays were blocked overnight in 4° C. with 1% fatty acid free bovine serum albumin (BSA; Sigma) in phosphate buffered saline (PBS; Gibco BRL). Arrays were then probed with 1/10 dilutions of CSF, or 1/200 dilutions of sera for 2 hours at 4° C. After washing with blocking solution, a secondary antibody (anti-human IgG+IgM, Jackson Immunoresearch; anti-human IgG, Jackson Immunoresearch; anti-rabbit IgG, Amersham; or anti-mouse IgG, Amersham) conjugated to horseradish peroxidase (HRP) was added in blocking solution, and bound secondary antibodies visualized using chemiluminescence (ECL Plus, Amersham) and autoradiography. […]

IL-4 = IL-4 production by PLP139-151-specific T cells from sulfatide co-immunized mice; assay type: in vivo; conditions: T cells from mice immunized with PLP139-151+sulfatide
Description: as §7, §8

IFNγ [9] = experiment: IFNγ production by PLP139-151-specific T cells from sulfatide co-immunized mice; assay type: in vivo; conditions: T cells from mice immunized with PLP139-151+sulfatide
Description: as §7, §8
as §4, with “assays. We sacrificed mice and harvested their lymph node cells and splenocytes.” for “assays.”

TNFα = TNFα production by PLP139-151-specific T cells from sulfatide co-immunized mice; assay type: in vivo; conditions: T cells from mice immunized with PLP139-151+sulfatide

| Compound | IFNγ secretion by lymph node cells (IFNγ [1]) | IFNγ secretion by lymph node cells (IFNγ [1]; listed as PCPG) | IFNγ secretion by splenocytes (IFNγ [1]; splenocytes from treated EAE mice stimulated with PLP139-151) | 3H-thymidine incorporation (proliferation) of splenocytes (splenocytes) | T cell proliferation by CFSE staining (TCR Tg LN cells [2]) | effect of IL-2 on PGPC-mediated reduction of proliferation ([3]; 1 μg/ml MBPAc1-11, 30 μg/ml PGPC plus 50 U/ml IL-2) | MBPAc1-11-specific T cell proliferation (3H-thymidine incorporation) ([3]; LN cells, 1 μg/ml MBPAc1-11, 30 μg/ml PGPC) | expression of early activation marker CD69 on CD4+ T cells [4] | CD4+CD69+ cells [4] | CD4+CD69− cells [4] [%] | severity of paralysis in established EAE (EAE [5]) | cell death by 7AAD uptake (TCR Tg LN cells [6]) | severity of EAE (prevention) (EAE [7]) | EAE disease course after co-immunization (EAE [8]) | IL-12 production (IL-12) | anti-lipid antibody reactivities in serum (anti-lipid antibodies) | IL-4 production in response to PLP139-151 (IL-4) | IFNγ production in response to PLP139-151 (IFNγ [9]) | TNFα production in response to PLP139-151 (TNFα) |
| --- | --- | --- | --- | --- | --- | --- | --- | --- | --- | --- | --- | --- | --- | --- | --- | --- | --- | --- | --- |
| CCCCCCCCCCCCCCCC(=O)OC[C@H](COP(=O)([O-])OCC[N+](C)(C)C)OC(=O)CCCC(=O)O [PGPC, 1-palmitoyl-2-glutaroyl-sn-glycero-3-phosphocholine] | secreted less IFNgamma; also recorded: secreted lower levels of IFNγ | decreased IFNγ levels | secreted less IFNgamma; also recorded: secreted lower levels of IFNγ | reduced; also recorded: slightly lower proliferation | slowed T cell proliferation; also recorded: reduces T cell proliferation rates; also recorded: reduced cell divisions | IL-2 reversed this effect | statistically significant reductions in MBPAc1-11-specific T cell proliferation; also recorded: reduced cell proliferation | marked reduction in the expression of the early activation marker CD69 | 7.96% | 55.2 | reduced the severity of paralysis; also recorded: treats ongoing disease | not due to cell death; also recorded: not inducing cell death | statistically reduced the severity of EAE; also recorded: ameliorates EAE |  |  |  |  |  |  |
| sulfatide |  |  |  |  |  |  |  |  |  |  |  |  |  | exacerbated murine MS; also recorded: more severe EAE disease course | increased levels | increased anti-sulfatide and other anti-lipid antibody reactivities; also recorded: increased anti-lipid antibodies | less and lower levels | increased amounts; also recorded: increased levels | increased amounts |
| sphingomyelin | decreased IFNγ levels |  |  |  | mirrored that of the control; also recorded: line parallels gray shaded area |  |  | intermediate level of CD69 expression | 9.61% and 9.6% | 43.8 | only PGPC treats ongoing disease |  | statistically reduced the severity of EAE; also recorded: ameliorates EAE |  |  |  |  |  |  |

From patent US8252775B2, “Method of treating multiple sclerosis with phosphocholine containing lipids” (priority 2005, dated 2012)
